“And” between values parts separate entries of the source, which are not always exact repeats. Equal values may be shown once.
Tests used:
[1] = target: T1, hCB2R (Homo sapiens, UniProt P34972); assay: Homologous competition binding of [18F]RM365 / RM365 on membranes of hCB2R-CHO cells
T1 construct: host or cells: CHO cells, stably transfected
Excerpt: To complement the indirect determination of the affinity of RM365 toward the CB2R in vitro, we performed a direct binding study with the radiofluorinated ligand using preparations of CHO cells stably transfected with the cloned human receptor and one spleen from a female SPRD rat expressing high levels of the receptor in the leukocytes.[12] The results of the homologous competition study shown in Figure 6 confirm the good affinity of [^18F]RM365 toward the human CB2R with a KD value of about 2 nM. […] Furthermore, the measurement signal obtained from the incubation of [^18F]RM365 with the homogenate of rat spleen was in the range of the values obtained for the nonspecific binding of the radioligand toward the preparation of CB2R-transfected CHO cells. We conclude that RM365 binds the rat CB2R with lower affinity than the human CB2R but expect no significant interactions of the radioligand with nonspecific binding sites.[82] […]
The nonspecific binding of the respective radioligand was determined by coincubation with CP55,940 (final concentration 10^–5 M). The normalized values of bound activity (% specific binding) were calculated and plotted vs the logarithm of the concentration of the respective test compound. […]

[2] = In vivo metabolism, quantification of radiometabolites by radio-HPLC in brain and plasma; design: species or system mouse; details: female CD-1 mice, 30 min p.i., i.v.
Protocol: The good in vitro results obtained for [^18F]RM365 justified its further evaluation in vivo, and we proceeded with the investigation of radioligand metabolism in mouse. The brain as well as blood samples were obtained from two female CD-1 mice 30 min after intravenous administration of [^18F]RM365. About 90% of the radioactivity detected in the brain samples accounted for intact radioligand (Figure 8), while in blood plasma, the fraction of the intact radioligand represented only 55% of the detected radioactivity (Figure 8B). Accordingly, the absence of a significant fraction of radiometabolites of [^18F]RM365 in the brain indicates the suitability of this radioligand for neuroimaging.
Figure 8 In vivo metabolism of [^18F]RM365. […]
The samples were further processed for subsequent radio-chromatographic analyses. […] The activities of supernatants and precipitates were measured in an γ-counter (1480 WIZARD, Fa. PerkinElmer), and the extraction efficiencies were calculated as the ratio of the radioactivity in the supernatant to the radioactivity in the original sample (supernatant + precipitate). The supernatants from both extractions were combined, concentrated at 70 °C under an argon stream up to a remaining volume of 100 μL, and subsequently analyzed by analytical radio-HPLC with a gradient system as applied in Section 5.2.2.

T1 sequence (P34972 whole entry): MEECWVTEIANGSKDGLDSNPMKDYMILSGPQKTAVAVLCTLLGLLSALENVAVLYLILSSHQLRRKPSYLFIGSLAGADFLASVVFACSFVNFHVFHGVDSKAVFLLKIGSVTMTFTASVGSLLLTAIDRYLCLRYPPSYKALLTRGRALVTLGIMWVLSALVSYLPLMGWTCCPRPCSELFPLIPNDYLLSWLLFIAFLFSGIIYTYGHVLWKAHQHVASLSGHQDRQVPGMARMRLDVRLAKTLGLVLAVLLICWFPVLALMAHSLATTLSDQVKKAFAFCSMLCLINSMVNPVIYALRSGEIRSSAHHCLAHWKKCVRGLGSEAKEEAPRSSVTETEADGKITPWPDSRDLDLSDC

For `CC1(C)Cc2ccc(C#N)cc2[C@@H]1NC(=O)c1cc2cc([18F])ccc2[nH]1` [[^18F]RM365], the IC50 ([1]; 0.078 nM [18F]RM365, increasing concentrations of RM365) was 2.4 nM, the Kd ([1]; 0.078 nM [18F]RM365, single experiment in triplicate, KD = IC50 - concentration radioligand) was 2.32 nM and ~2 nM and the “intact radioligand, fraction of radioactivity in blood plasma” value [2] was 55%.
